Experimental data as given in patent publication US6375943B1, “Attractant for the mediterranean fruit fly, the method of preparation and method of use” (The United States of America as represented by the …, priority 2000, dated 2002).

How the values were obtained:
[1] = system: Mediterranean fruit fly, Ceratitis capitata (Wiedemann); assay: Dose-response field test, Jackson traps, released sterile flies; assay type: in vivo; details: for Male capture compared with other treatments: 1 mg, 0.1 mg and 0.01 mg dosages; for Mean male fly capture ± s.e.: 48 hours, released sterile flies
Experimental: Field attraction of Mediterranean fruit fly, Ceratitis capitata (Wiedemann), to stereoselectively synthesized enantiomers of the ceralure B1 isomer: The attractancy of the two newly synthesized ceralure B1 enantiomers was evaluated against laboratory and wild populations of medfly and the response to these compounds was compared to commercially available trimedlure and ceralure. Field tests using released sterile flies on the island of Hawaii or field tests against wild populations of medfly in commercial coffee plantations on the island of Kauai were carried out to compare the attractancy, dose response and initial persistence of the new molecules and a racemic (50:50) mixture of the two.
(§1) Insects: Sterilized Mediterranean fruit fly pupae were obtained from the USDA-ARS-USPBARC rearing facility in Honolulu, Hi. The flies were reared on an artificial diet (Tanaka, N., et al., J. Econ. Entomol., 62: 967-968 (1969)) under standard mass-rearing conditions and sterilized as pupae at a dose of 150 GY and two days before emergence. Flies were shipped by air to Hilo where 150 ml of pupae (both sexes) was placed in 15-gallon Rubbermaid action packers modified by screened panels on the bottoms and sides of the units. The emerged flies were given water, sugar and hydrolyzed yeast protein. Flies were 2-9 days old when tested. Wild populations of medflies were present in coffee orchards on the island of Kauai.
(§2) Bioassays: All tests were conducted using tent-shaped Jackson traps with open ends, a removable sticky insert and a ½ inch cotton wick containing the test chemical (Harris, E. J., et al., J. Econ. Entomol., 64: 62-65 (1971)). All tests were conducted using a randomized complete block design having five traps of each treatment in the block. The tests were replicated at least 5 times.
Dose-response tests: 10 mg, 1 mg, 0.1 mg and 0.01 mg doses of each compound (in 100 μl acetone) were tested on ½ inch cotton wicks in Jackson traps. Acetone was used in the control. The treatments were ceralure B1 (1S,2S,5S), ceralure B1 (Racemic), ceralure B1 (1R,2R,5R), trimedlure, ceralure and a blank control. Traps were placed in a macadamia nut orchard on the island of Hawaii near the town of Hilo. Traps were separated by every other tree in every row (approximately 15 meters between traps). Flies (approximately 6,000) were then released by slowly walking between rows while allowing the flies to escape from the opened action packer. Traps were left out for 48 hours after which the traps were collected and brought back to the lab for analysis. Both males and females were counted on the sticky inserts.
(§3) Data analysis: Both male and female medfly were counted on the sticky inserts. […] Data was subjected to analysis of variance (Proc GLM) and the Turkey's test for separation of means values. Significant differences in response were determined at the P=0.05 level. Data were not transformed prior to analysis. Statistical analysis was performed on SAS ver 6.12 (SAS Institute, Cary, N.C.) using a PC. Values presented on the tables are mean values SEM.

[2] = system: wild Mediterranean fruit flies; assay: Wild fly response to ceralure B1 enantiomers, first experiment, Kauai coffee; details: for Male capture compared with other treatments: 10 mg dosage; for Response of wild flies, Mean ± s.e.: 10 mg, traps serviced every two days
[3] = system: Mediterranean fruit fly; details: field studies from the literature; cited from earlier work
[4] = system: Mediterranean fruit fly, Ceratitis capitata (Wiedemann); assay: Longevity field test over three weeks, Jackson traps, released sterile flies; assay type: in vivo; details: for Male capture compared with other treatments: 10 mg dose
Experimental: as §1, §2
Longevity tests: Preliminary tests to determine the effectiveness of the different chemical compounds over time were also carried out using sterile flies released in a macadamia nut orchard. In these tests all compounds were applied to the cotton wick at a 10 mg dose. 100 μl of each compound was placed on a ½ inch wick inside a Jackson trap. Traps were serviced weekly for three weeks. Inserts were changed each week and new flies were released but the same compounds were left in the field to age.
as §3

[5] = system: wild Mediterranean fruit flies; assay: Wild fly response, second experiment against standard 2 g trimedlure plug; details: for Male capture compared with other treatments: after 48 hours, 10 mg versus 2 g trimedlure plug
[6] = known in the literature; cited from earlier work
[7] = dose .01 mg on cotton wick, N = 25
[8] = Week 1, 10 mg dose, released sterile flies
[9] = Week 2, 10 mg dose, same lure aged in field
[10] = Week 3, 10 mg dose, same lure aged in field

Row | Molecule | Male capture compared with other treatments ([1]; 10 mg) | Mean male fly capture ± s.e. ([1]; dose 1 mg on cotton wick) | Mean male fly capture ± s.e. ([1]; dose 10 mg on cotton wick) | Mean male fly capture ± s.e. [1, 7] | Mean male fly capture ± s.e. ([1]; dose .1 mg on cotton wick) | Male capture compared with other treatments [2] | Response of wild flies, Mean ± s.e. [2] | Relative attractiveness toward the Mediterranean fruit fly [3] | Male fly capture, mean ± SEM [4, 8] | Male fly capture, mean ± SEM [4, 9] | Male fly capture, mean ± SEM [4, 10] | Male capture compared with other treatments ([4]; after one week) | further results
1 | CCOC(=O)[C@H]1C[C@@H](I)CC[C@@H]1C (racemic) [B1 Racemic, Ethyl(1SR,2SR,5SR)-5-iodo-2-methylcyclohexane-1-carboxylate] | captured significantly more male medflies than B1 (1S,2S,5S), commercial trimedlure, commercial ceralure and (acetone) control | 376.8 ± 36.7 a | 365.53 ± 33.7 b | 111 ± 12.2 a | 179.67 ± 33.5 b | significantly higher captures than the B1 (1S,2S,5S) and commercial ceralure | 70.8 ± 10 b | most active | 274.5 ± 21.8 a | 79.6 ± 33.3 a | 4.7 ± 3.7 a | captured significantly more males than B1 (1S,2S,5S), commercial trimedlure, commercial ceralure and control | Mean male fly capture ± s.e. ([1]; dose .01 mg on cotton wick, N = 25, listed as B1 racemic): 111; Male capture compared with other treatments ([4]; after two weeks): captured significantly more males than any other compound
2 | C[C@H]1C[C@H](Cl)CC[C@@H]1C(=O)OC(C)(C)C (relative stereo) [(1S, 2S, 4R), 1,1-dimethylethyl-cis-4-chloro-trans-2-methylcyclohexane-1-carboxylate] | – | – | – | – | – | – | – | most attractive | – | – | – | – | –
3 | CCOC(=O)[C@@H]1C[C@H](I)CC[C@H]1C [B1 1R,2R,5R, Ethyl (1R,2R,5R)-5-iodo-2-methylcyclohexane-1-carboxylate] | captured significantly more male medflies than B1 (1S,2S,5S), commercial trimedlure, commercial ceralure and (acetone) control | 473.07 ± 56.6 a | 487.27 ± 33 a | 117 ± 14.1 a | 303.07 ± 34.5 a | captured significantly more males than the B1 racemic mixture | 104.2 ± 13.7 a | – | 338.9 ± 40.1 a | 69.3 ± 24.9 ab | .3 ± .3 a | captured significantly more males than B1 (1S,2S,5S), commercial trimedlure, commercial ceralure and control | Dose compared to trimedlure to achieve the same trap capture ([1]; 0.01 mg versus trimedlure 10 mg, mean values from Table 1): 1000 times less; Male capture compared with B1 racemic mixture ([1]; 10 mg, 1 mg and 0.1 mg doses): captured significantly more males than the B1 racemic mixture; Mean male fly capture ± s.e. ([1]; dose .01 mg on cotton wick, N = 25, listed as 1R,2R,5R enantiomer): 117; Activity relative to trimedlure at similar doses ([1]; male capture compared to trimedlure, similar doses): 7-10 times; Male capture compared with other treatments [5]: captured the most male medflies but not significantly more than the B1 racemic mixture and commercial trimedlure; Male capture compared with other treatments ([5]; listed as B1 (1R,2R,5R) enantiomer): caught more wild flies after two days than the TML plug; Flies captured as share of the TML plug baited trap ([5]; after an additional 5 days, 10 mg versus 2 g TML plug): approximately 33%
4 | CCOC(=O)[C@H]1C[C@@H](I)CC[C@@H]1C [B1 1S,2S,5S, Ethyl(1S, 2S, 5S)-5-iodo-2-methylcyclohexane-1-carboxylate] | – | 173 ± 42.2 b | 151.80 ± 25.3 c | 38.3 ± 6.5 b | 57.20 ± 8.3 c | – | 40.5 ± 8.3 c | – | 135.7 ± 33.4 b | 5.5 ± 4.5 b | 0 ± 0 a | – | –
5 | CC1CC(Cl)CCC1C(=O)OC(C)(C)C (stereo not drawn) [TML-C, 1,1-dimethylethyl-cis-4-chloro-trans-2-methylcyclohexane-1-carboxylate] | – | – | – | – | – | – | – | most active | – | – | – | – | –
6 | ethyl 4 (and 5)-iodo-2-methylcyclohexane-1-carboxylate [Com. Ceralure, reference compound] | – | 65.07 ± 9.5 bc | 170.47 ± 33.1 c | 23.4 ± 6.3 bc | 11.27 ± 4.1 c | – | 31.8 ± 4.4 c | more persistent and potent attractant than TML | 135 ± 16.8 b | 3.1 ± 2.2 b | .47 ± .27 a | – | Volatility compared with trimedlure [6]: less volatile than trimedlure
